Measurements taken from patent publication US11730769B2, “Compositions and methods for Williams Syndrome (WS) therapy” (MASSACHUSETTS INSTITUTE OF TECHNOLOGY, priority 2017, dated 2023).
Entries after “also recorded” stand apart in the source; their conditions may differ. Read-outs that look alike come from different tables or passages of the source.

Experiments:
N-type calcium channels = N-type calcium channels (Homo sapiens, UniProt Q00975); conditions: read-out: EC50 for activation of N-type calcium channels; cited from earlier work
Sequence of N-type calcium channels (Q00975 whole entry): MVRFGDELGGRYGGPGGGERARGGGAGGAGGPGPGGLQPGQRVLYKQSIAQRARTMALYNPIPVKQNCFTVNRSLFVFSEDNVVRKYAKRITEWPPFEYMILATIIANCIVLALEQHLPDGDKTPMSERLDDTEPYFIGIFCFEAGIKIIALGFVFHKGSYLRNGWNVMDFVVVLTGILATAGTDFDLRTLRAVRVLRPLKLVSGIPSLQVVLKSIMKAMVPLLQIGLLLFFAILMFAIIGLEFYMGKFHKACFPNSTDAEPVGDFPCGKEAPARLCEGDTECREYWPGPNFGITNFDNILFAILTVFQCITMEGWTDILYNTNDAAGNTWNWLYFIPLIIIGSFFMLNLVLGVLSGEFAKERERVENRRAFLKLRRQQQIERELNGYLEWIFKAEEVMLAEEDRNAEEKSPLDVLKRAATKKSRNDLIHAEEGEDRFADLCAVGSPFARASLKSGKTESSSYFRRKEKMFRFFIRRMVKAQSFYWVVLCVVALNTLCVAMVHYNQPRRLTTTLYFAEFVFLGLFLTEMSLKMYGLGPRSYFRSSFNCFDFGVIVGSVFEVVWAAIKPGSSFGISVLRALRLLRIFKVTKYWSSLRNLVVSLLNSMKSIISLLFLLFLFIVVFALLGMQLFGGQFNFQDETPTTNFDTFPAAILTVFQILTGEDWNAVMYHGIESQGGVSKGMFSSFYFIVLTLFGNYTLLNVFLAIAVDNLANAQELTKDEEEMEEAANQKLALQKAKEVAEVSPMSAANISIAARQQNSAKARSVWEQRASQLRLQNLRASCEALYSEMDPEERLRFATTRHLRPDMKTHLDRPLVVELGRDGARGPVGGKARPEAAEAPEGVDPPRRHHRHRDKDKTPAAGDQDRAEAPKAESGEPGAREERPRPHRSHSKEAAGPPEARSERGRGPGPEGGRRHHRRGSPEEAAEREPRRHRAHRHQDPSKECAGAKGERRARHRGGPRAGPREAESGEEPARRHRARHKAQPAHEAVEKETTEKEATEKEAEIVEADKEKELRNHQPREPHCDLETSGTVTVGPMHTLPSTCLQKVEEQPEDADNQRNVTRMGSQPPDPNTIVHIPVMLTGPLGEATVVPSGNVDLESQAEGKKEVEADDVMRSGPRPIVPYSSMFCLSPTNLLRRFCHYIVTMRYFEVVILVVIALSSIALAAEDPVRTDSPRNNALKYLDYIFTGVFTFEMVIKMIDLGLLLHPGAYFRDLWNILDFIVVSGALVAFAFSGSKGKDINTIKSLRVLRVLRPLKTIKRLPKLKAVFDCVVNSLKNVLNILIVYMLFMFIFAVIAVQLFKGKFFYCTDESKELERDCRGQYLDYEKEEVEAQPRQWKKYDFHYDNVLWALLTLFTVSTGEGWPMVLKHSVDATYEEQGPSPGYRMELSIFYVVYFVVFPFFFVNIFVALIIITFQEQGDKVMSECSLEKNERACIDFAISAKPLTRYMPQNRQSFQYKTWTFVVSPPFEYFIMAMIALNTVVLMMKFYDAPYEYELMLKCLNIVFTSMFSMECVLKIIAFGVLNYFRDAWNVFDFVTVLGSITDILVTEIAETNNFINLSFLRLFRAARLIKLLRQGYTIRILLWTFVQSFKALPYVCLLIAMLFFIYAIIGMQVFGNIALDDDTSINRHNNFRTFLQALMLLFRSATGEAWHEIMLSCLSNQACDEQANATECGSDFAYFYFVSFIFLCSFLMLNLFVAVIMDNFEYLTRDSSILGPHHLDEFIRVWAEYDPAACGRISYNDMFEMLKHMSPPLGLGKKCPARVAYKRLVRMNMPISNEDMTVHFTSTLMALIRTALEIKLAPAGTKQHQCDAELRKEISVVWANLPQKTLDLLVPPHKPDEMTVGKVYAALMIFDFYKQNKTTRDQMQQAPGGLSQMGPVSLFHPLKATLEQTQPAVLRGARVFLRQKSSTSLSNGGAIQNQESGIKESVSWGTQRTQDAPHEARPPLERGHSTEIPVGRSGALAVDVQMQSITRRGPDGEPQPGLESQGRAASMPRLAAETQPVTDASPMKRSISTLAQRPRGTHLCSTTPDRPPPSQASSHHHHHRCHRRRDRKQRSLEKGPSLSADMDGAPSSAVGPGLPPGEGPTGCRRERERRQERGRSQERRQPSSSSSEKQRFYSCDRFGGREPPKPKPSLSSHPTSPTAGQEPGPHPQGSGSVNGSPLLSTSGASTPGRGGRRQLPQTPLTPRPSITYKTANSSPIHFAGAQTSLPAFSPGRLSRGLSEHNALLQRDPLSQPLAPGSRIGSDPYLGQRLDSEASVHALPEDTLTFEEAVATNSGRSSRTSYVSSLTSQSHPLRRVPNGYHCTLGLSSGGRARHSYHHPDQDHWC
Sequence of N-type calcium channels (P54284 whole entry partner): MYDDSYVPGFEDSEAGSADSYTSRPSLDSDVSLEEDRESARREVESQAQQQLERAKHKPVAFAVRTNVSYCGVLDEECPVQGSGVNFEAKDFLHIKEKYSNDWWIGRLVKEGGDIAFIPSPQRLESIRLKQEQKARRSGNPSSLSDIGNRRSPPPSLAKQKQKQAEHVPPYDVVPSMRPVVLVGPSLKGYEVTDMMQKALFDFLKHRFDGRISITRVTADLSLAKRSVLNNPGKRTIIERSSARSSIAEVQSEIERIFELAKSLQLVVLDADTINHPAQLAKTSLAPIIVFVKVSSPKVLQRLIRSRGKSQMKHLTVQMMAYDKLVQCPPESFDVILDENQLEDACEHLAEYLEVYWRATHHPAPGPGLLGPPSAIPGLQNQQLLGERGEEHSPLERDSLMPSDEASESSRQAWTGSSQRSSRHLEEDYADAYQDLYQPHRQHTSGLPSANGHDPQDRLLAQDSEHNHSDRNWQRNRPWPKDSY
Sequence of N-type calcium channels (P54289 25-946 partner limits assumed): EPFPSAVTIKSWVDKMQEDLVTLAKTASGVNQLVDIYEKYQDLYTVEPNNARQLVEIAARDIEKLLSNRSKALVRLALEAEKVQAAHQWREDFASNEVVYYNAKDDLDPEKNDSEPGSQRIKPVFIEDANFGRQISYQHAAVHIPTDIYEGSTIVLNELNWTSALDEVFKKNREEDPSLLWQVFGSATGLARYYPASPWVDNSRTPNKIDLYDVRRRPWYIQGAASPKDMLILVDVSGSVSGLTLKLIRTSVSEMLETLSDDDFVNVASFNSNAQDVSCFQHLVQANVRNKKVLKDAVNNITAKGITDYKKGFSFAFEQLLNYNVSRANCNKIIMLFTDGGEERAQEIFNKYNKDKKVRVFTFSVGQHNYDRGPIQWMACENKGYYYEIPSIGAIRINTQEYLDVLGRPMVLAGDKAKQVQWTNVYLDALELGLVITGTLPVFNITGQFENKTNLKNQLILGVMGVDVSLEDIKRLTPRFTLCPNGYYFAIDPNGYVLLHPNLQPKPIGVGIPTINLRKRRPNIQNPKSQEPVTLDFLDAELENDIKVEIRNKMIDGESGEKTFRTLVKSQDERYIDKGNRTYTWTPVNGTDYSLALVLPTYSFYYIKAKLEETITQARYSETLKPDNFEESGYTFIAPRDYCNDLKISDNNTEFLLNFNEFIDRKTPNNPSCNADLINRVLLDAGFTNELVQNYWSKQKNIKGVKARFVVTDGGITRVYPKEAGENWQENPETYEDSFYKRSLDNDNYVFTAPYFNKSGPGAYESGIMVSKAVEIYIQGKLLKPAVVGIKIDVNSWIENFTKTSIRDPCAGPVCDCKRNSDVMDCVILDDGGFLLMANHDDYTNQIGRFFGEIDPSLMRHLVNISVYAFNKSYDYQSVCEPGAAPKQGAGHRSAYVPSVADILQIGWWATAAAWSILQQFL
Sequence of N-type calcium channels (P54289 947-1103 partner limits assumed): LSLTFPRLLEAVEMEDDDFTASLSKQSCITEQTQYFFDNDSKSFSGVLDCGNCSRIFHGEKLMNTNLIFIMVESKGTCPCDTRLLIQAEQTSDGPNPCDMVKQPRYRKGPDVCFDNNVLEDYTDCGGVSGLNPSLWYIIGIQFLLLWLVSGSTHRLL

[1] = molecular target: P/Q-type calcium channels (Homo sapiens, UniProt O00555); conditions: read-out: EC50 for activation of P/Q-type calcium channels; cited from earlier work
L-type calcium channels = conditions: read-out: EC50 for activation of L-type calcium channels; cited from earlier work
Gtf2i cKO mice [2] = assay: Number of myelinating oligodendrocytes (immunofluorescence); type: in vivo; conditions: clemastine 10 mg/kg daily by gastric gavage for 14 days
Procedure: Basic immunofluorescence procedure was used as previously described (68). Mice were deeply anesthetized with isoflurane and transcardially perfused with 15 ml ice-cold PBS solution followed by 15 ml fresh ice-cold 4% paraformaldehyde (PFA) in PBS. Brains were dissected and kept in 4% PFA overnight at 4° C. and then sectioned at 100 μm thickness by vibratome (Leica). Floating brain slices were washed 3 times, 5 min each, with PBS and permeabilized with 1.2% Triton X-100 in PBS for 15 min at room temperature. Slices were then washed 3 times, 5 min each, followed by blocking with 5% normal goat serum, 2% BSA, 0.2% Triton X-100 in PBS for 1 h at room temperature. Primary antibodies diluted in blocking buffer were applied to sections overnight at 4° C. […]
To quantify cellular properties in the cortex, images were taken by an experimenter blinded to genotypes with a 10× magnification at the motor cortex area at bregma 0.5 mm. […] The midline of the CC was imaged at the same bregma, using a 40× magnification, and the whole depth of the CC was imaged by taking 10 images as part of a Z-stack serial imaging, and then all images were stacked together to a single image which was then analyzed for quantification. Cell numbers were quantified blindly with automation using ImageJ. […] The pixel intensity of H3ac and H3K9me3 was quantified using ImageJ, as was previously described (37). […]

socially isolated mice = conditions: cited from earlier work
[3] = cited from earlier work
[4] = phosphate salt; does not require refrigeration; cited from earlier work
[5] = in vivo; cited from earlier work
[6] = cited from earlier work; remark: listed apart in the source
Gtf2i cKO mice [7] = assay: Intra-cortical microstimulation (ICMS) and EMG recording (corticospinal output); type: in vivo; conditions: acute 4-AP 2 mg/kg i.p., test 30 to 60 minutes after injection; cKO and control mice
Procedure: ICMS and EMG recording protocol was adopted from previous studies (71, 72). Each animal was anesthetized with ketamine-xylazine (100 mg/kg ketamine, 10 mg/kg xylazine, i.p.). Anesthesia level was maintained at a steady level to that animal was unresponsive to toe pinch while muscle tone was present.
A digital stereotaxic frame was used to mount the animal's head and guide stimulation electrode (stainless steel, 0.5 MOhm; World Precision Instruments) over an array of motor cortical sites (0.9 mm caudal and 0.6 mm rostral to Bregma, 0.9 mm to 1.8 mm lateral to midline, with 300 μm spacing between sites). Stimulation electrode was inserted into the cortex at 500 μm depth, targeting layer V motor neurons. The exposed brain area was immersed with silicon oil to avoid dehydration. Electrical stimulation (biphasic, 0.2 ms pulse width, 333 Hz, 45 ms) was adjusted between 100 to 300 μA and located at the position that has the lowest threshold to trigger EMG signal. Stimulation intensity of two folds of threshold was then used for EMG recording and analysis. To perform EMG recording, an incision was made on hindlimb to expose the muscles while fascia remained intact. […] EMG signals were acquired using differential AC amplifier (1700, A-M Systems, WA) with 10-1000 Hz bandpass filter, sampled at 5 kHz using a digitizer (Digidata 1440A, Axon Instruments), and analyzed by pClamp Software. […]

Gtf2i cKO mice [8] = assay: Evoked field potential recordings in corpus callosum; type: in vivo; conditions: acute 4-AP administration
Procedure: In vivo evoked field potential recording in corpus callosum was referenced to that from in vitro studies (69, 70). Animals were anesthetized with urethane (1,000 mg/kg) and placed on a stereotaxic instrument. Body temperature was maintained by thermostat at 37.5-38° C. Craniotomy was performed and dura was kept intact. Stainless steel stimulation electrode (300˜500 kOhm, WPI) was positioned in corpus callosum in left hemisphere (1.5 mm posterior to Bregma, 1 mm lateral from midline, 1,000˜1,300 μm beneath cortical surface), and tungsten recording electrode (2˜3 MOhm, FHC) was positioned in corpus callosum at same coronal plane in right hemisphere (1.5 mm posterior to Bregma, 1 mm from midline, 1,000˜1,300 μm beneath cortical surface). Electrical stimulation (0˜200 uA, 0.2 ms pulse width, 0.2 Hz) was delivered while both positions of stimulation and recording electrodes were slightly adjusted to optimize signal. Signals were filtered at 0.1-3,000 Hz and gained at 1,000 times (Model 1700, A-M Systems), digitized and sampled at 10,000 Hz (Digidata 1440A, Molecular Devices), and analyzed offline (Clampfit). […] Response amplitude was determined by measuring the vertical distance from negative peak to the tangent joining preceding and following positivities. […]

Gtf2i cKO mice [9] = assay: Horizontal ladder walking test; type: in vivo; conditions: acute 4-AP 1 mg/kg i.p., three hours post administration
Procedure: Mice were tested for their ability to walk on a horizontal ladder with irregularly spaced rungs, following the procedure described previously (44). Animals were trained to cross the ladder until their performance achieved the plateau (with a forelimb error of 20% or less). The irregular pattern was changed from trial to trial during training. All trials were video recorded with Hotshot e64 and paw placement was analyzed. The paw placement on rungs were categorized as Hit (platar contact and digits closure), Miss (paw falls between rungs) and Slip (imprecise contact with one or few digits). Experimenter was blinded to genotypes.
Mice were habituated to needle injections (i.p.) for three days before behavioral tests, by two i.p. injections of 200 μL of saline administered per day. […] All behavioral tests were therefore accomplished three hours post systemic administration. Saline-injected mice in each genotype (Control or cKO mice) were referred as the baseline group for the treatment group, which was injected with 4-AP. Experimenter was blinded to genotypes.

Gtf2i cKO mice [10] = assay: Three-chamber social preference test; type: in vivo; conditions: acute 4-AP 1 mg/kg i.p., three hours post administration
Procedure: Stranger mice were wildtype S129 Sv males (Jackson Laboratory) with matched age and body weight to test mice. Stranger mice were habituated by placing them inside an inverted wire cup for 30 min, two sessions per day for three consecutive days before tests. Each stranger mouse was used a maximum of two times per day. The social test apparatus was made of a clear Plexiglas box (65 cm (L)×44 cm (W)×30 cm (H)) with a removable floor and partitions dividing the box into left, center, and right chambers. The center chamber (21 cm×22 cm) was half the width of the left and right chambers (each is 21 cm×44 cm). These three chambers were interconnected with 5 cm openings between each chamber that could be closed or opened manually with a lever-operated door. The inverted wire cups containing the stranger mice were cylindrical, 10 cm in height, with a bottom diameter of 10 cm and with metal bars spaced 0.8 cm apart. A weighted cup was placed on top of the inverted wire cups to prevent the test mice from climbing onto the wire cup. […] Then, experimenter blinded to genotypes analyzed for timespent in close proximity to the stranger mouse or object was analyzed using the Noldus Ethovison XT software. Social preference index was calculated as follows: (time in close interaction with stranger)/(time in close interaction with object). […]

Shaker channels = conditions: at concentration of 1 mM; cited from earlier work
[11] = tested on: normal adult myelinated axons; conditions: cited from earlier work
[12] = tested on: chronically injured spinal cord of guinea pigs; conditions: cited from earlier work
[13] = oral, non-sustained release, animals; cited from earlier work
[14] = cited from earlier work; remark: listed apart in the source
[15] = patients with MS, all studies; cited from earlier work
rats = conditions: cited from earlier work

Compound: CCCn1cnc2c(NCc3ccc(C)s3)nc(N[C@H](CC)CO)nc21 [GV-58]
- EC50 (N-type calcium channels): 6.8 µM
- EC50 [1]: 9.9 µM
- EC50 (L-type calcium channels): > 100 µM

Compound: CN1CCCC1CCOC(C)(c1ccccc1)c1ccc(Cl)cc1 (stereo not shown) [Clemastine]
- Number of myelinating oligodendrocytes (mOLs) in cortex and CC midline (Gtf2i cKO mice [2]): normalized
- Number of myelinating oligodendrocytes (mOLs) in cortex and CC midline (Gtf2i cKO mice [2]; listed as clemastine): significantly increased and normalized to control levels
- Impaired myelination (socially isolated mice; oral clemastine, prolonged social isolation): rescued
- Social avoidance behavior (socially isolated mice; oral, 2 weeks, adult mice following prolonged social isolation): successfully reverse social avoidance behavior

Compound: Nc1ccncc1N.O=P(O)(O)O [amifampridine phosphate, 4-aminopyridine-3-ylammonium dihydrogen phosphate]
- Solubility in water ([3]; phosphate salt): readily soluble in water
- Stability [4]: stable

Compound: CC[N+](CC)(CC)CC.[Br-] [TEA, Tetraethylammonium]
- Oral activity [5]: not orally active

Compound: Nc1ccncc1N.O=P(O)(O)O [Amifampridine, pyridine-3,4-diamine]
- Time to maximum concentrations in blood plasma ([6]; 91 healthy subjects, after a fatty meal): 1.3 (±0.9) hours
- Time to maximum concentrations in blood plasma ([6]; 91 healthy subjects, without food): 0.6 (±0.25) hours
- Area under the curve (AUC) ([6]; 91 healthy subjects): 117 ± 77 ng·h/mL
- Biological half-life ([6]; 91 healthy subjects): 2.5±0.7 hrs
- AUC increase in slow metabolizers as compared to fast metabolizers ([6]; N-acetyltransferase activity): up to 9 fold
- Eliminated via kidneys and urine as N-acetylamifampridine ([6]; human, in vivo): 74-81%
- Eliminated via kidneys and urine in unchanged form ([6]; human, in vivo): 19%
- Absorbed from the gut ([6]; oral): 93-100%
- Solubility in water ([3]; 20° C.): 25 mg/mL
- Solubility in diethyl ether [3]: only slightly
- Solubility in methanol, ethanol and hot water [3]: readily soluble

Compound: Nc1ccncc1 [4-AP, 4-aminopyridine]
- EMG peak amplitude (cortico-spinal tract) (Gtf2i cKO mice [7]): increased significantly; also recorded: increased following 4-AP acute administration
- EMG response latency (cortico-spinal tract) (Gtf2i cKO mice [7]): significantly shortened; also recorded: significantly decreased and normalized to control levels
- Peak amplitude of evoked potential in corpus callosum (Gtf2i cKO mice [8]): increased following 4-AP acute administration and normalized to control levels
- Peak latency of evoked potential in corpus callosum (Gtf2i cKO mice [8]): significantly decreased and normalized to control levels
- Fine motor skills, horizontal irregular ladder walking, forelimb and hindlimb (Gtf2i cKO mice [9]): normalized fine motor skills; also recorded: rescued
- Social preference (index), three-chamber test (Gtf2i cKO mice [10]): normalized social preference; also recorded: decreased and normalized to control levels
- Inhibition of Shaker channels (Shaker channels): selectively and reversibly inhibits
- Concentrations causing gradual depolarization of the axon resting potential [11]: above 1 mM
- Concentrations at which the action potential shows little or no sensitivity ([11]; normal adult myelinated axons): below 100 μM
- Most effective concentration [12]: about 10 μM
- Time of peak plasma concentrations [13]: within one hour
- Cmax ([14]; 10 mg oral solution): 42.7 ng/mL
- Absorption from the gastrointestinal tract ([14]; oral): completely absorbed
- Absolute bioavailability ([14]; two formulations of IR tablets): 95%
- Incidence of adverse effects [15]: less than 5%

Compound: Opicinumab: fully human monoclonal antibody, LINGO-1 protein antagonist (Anti-Lingo-1)
- Remyelination (rats): 90%
